Experimental data from ChEMBL document CHEMBL1157522 (Bioorg Med Chem Lett, 2008).
Calls of active or inactive are those of the source. No cut-off for these calls is given here.

Legend:
[1] = Metabolic stability in human liver microsomes assessed as half life; format: ADME, Microsome
Canis familiaris = species: Canis familiaris; assay: (§1) Volume of distribution at steady state in dog; format: ADME, organism-based, Canis lupus familiaris; details: in vivo
[2] = Bioavailability in dog at 0.5 mg/kg, iv; format: ADME, organism-based, Canis lupus familiaris; details: in vivo
[3] = biological target: Coagulation factor IX (Homo sapiens) (UniProt P00740); assay: Inhibition of human factor 9a
[4] = biological target: T1, Coagulation factor VII (Homo sapiens) (UniProt P08709); assay: Inhibition of human factor 7a
T1 sequence (whole entry): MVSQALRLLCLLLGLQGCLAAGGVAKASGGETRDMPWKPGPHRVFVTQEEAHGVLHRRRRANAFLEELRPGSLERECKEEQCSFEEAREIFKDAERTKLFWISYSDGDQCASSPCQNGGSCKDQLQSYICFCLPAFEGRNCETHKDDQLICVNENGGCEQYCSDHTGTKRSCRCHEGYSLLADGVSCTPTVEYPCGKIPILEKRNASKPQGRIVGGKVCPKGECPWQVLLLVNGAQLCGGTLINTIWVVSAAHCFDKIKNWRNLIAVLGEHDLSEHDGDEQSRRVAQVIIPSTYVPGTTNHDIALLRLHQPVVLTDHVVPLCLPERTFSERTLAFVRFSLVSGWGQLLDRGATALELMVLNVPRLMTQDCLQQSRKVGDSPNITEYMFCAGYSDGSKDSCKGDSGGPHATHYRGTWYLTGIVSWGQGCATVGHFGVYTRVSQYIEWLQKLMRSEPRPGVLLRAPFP

[5] = biological target: Plasminogen (Homo sapiens) (UniProt P00747); assay: Inhibition of human plasmin
Homo sapiens = species: Homo sapiens; assay: Inhibition of human chymotrypsin
[6] = biological target: Tissue-type plasminogen activator (Homo sapiens) (UniProt P00750); assay: Inhibition of human tPA
[7] = biological target: Plasma kallikrein (Homo sapiens) (UniProt P03952); assay: Inhibition of human plasma kallikrein; format: cell-free
[8] = biological target: Vitamin K-dependent protein C (Homo sapiens) (UniProt P04070); assay: Inhibition of human activated protein C
[9] = Clearance in dog at 0.5 mg/kg, iv; format: ADME, organism-based, Canis lupus familiaris; parameters: dose 0.5 mg/kg, route intravenous; details: in vivo
[10] = as §1; format: ADME, organism-based, Canis lupus familiaris; details: in vivo, read-out: Vdss
[11] = Half life in dog at 0.2 mg/kg, po; format: ADME, organism-based, Canis lupus familiaris; parameters: dose 0.2 mg/kg, route oral; details: in vivo
Coagulation factor X = Coagulation factor X (Homo sapiens, UniProt P00742); assay: Inhibition of human factor 10a
Trypsin (Homo sapiens) = Trypsin (Homo sapiens) (UniProt P07477+P07478+P35030); assay: Inhibition of human trypsin; format: protein assay

Chain of Tissue-type plasminogen activator (Homo sapiens) (P00750 36-562 limits assumed): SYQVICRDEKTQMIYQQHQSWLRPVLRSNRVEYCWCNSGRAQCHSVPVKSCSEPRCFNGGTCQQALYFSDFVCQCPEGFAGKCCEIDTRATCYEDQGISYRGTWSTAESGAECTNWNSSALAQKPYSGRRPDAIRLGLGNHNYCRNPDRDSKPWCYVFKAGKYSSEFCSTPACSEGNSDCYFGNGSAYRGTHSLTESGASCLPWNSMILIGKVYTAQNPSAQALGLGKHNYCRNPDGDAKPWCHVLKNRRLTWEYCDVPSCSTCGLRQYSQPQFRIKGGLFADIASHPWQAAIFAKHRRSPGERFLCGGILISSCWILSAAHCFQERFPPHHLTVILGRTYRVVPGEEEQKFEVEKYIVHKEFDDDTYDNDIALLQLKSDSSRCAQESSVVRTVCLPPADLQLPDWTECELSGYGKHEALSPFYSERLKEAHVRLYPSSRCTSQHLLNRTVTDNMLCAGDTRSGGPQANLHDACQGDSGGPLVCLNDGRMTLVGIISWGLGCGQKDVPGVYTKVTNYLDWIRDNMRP
Chain of Coagulation factor IX (Homo sapiens) (P00740 47-191 limits assumed): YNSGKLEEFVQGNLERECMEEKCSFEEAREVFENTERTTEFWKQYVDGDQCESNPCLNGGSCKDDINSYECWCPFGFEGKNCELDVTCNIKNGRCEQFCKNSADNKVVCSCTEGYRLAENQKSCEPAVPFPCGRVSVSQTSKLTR
Chain of Coagulation factor IX (Homo sapiens) (P00740 227-461 limits assumed): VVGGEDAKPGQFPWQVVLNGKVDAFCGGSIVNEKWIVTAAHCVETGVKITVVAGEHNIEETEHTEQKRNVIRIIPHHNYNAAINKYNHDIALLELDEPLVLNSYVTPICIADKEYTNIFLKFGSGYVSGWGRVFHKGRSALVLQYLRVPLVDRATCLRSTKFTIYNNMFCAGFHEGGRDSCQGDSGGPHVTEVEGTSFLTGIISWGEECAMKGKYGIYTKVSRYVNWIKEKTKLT
Chain of Plasma kallikrein (Homo sapiens) (P03952 20-390 limits assumed): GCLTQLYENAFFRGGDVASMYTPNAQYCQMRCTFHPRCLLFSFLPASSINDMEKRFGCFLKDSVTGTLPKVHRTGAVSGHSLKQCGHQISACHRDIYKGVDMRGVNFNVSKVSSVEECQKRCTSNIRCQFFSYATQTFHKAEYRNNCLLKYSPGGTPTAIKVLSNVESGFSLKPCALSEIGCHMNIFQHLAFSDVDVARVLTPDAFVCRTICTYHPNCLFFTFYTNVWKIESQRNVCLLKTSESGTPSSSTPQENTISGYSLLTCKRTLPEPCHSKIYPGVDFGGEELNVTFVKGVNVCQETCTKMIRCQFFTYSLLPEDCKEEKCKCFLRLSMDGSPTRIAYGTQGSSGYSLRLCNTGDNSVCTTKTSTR
Chain of Plasma kallikrein (Homo sapiens) (P03952 391-638 limits assumed): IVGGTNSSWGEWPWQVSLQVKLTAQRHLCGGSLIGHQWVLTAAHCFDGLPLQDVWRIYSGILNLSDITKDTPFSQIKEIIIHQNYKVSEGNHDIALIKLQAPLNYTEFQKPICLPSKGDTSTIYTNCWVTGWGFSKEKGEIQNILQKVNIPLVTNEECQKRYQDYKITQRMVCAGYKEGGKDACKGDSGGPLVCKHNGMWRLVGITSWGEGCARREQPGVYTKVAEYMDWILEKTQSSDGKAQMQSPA
Chain of Vitamin K-dependent protein C (Homo sapiens) (P04070 43-197 limits assumed): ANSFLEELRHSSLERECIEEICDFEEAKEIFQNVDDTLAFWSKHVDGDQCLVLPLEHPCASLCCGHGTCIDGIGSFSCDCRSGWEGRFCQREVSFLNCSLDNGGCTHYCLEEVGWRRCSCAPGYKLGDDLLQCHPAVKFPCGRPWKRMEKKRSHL
Chain of Vitamin K-dependent protein C (Homo sapiens) (P04070 212-461 limits assumed): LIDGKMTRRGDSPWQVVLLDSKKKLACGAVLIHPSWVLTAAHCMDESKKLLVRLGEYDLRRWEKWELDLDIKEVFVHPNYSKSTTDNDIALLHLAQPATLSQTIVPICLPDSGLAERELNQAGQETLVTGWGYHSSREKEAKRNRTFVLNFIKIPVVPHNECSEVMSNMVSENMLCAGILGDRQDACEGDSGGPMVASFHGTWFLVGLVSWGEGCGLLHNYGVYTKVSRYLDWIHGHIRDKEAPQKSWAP
Chain of Plasminogen (Homo sapiens) (P00747 97-580 limits assumed): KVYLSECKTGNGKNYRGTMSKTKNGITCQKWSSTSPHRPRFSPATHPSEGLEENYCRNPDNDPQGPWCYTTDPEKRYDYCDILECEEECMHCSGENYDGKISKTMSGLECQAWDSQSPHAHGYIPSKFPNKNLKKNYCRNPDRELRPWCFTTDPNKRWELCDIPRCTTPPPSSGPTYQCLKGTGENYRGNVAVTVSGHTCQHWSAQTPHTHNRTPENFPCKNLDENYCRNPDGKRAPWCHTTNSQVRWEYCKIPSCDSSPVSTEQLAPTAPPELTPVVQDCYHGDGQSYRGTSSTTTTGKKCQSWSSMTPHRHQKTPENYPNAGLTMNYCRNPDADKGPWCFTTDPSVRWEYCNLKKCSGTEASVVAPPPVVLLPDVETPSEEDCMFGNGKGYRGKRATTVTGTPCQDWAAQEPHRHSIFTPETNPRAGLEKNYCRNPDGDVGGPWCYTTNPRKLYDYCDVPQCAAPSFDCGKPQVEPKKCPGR
Chain of Plasminogen (Homo sapiens) (P00747 581-810 limits assumed): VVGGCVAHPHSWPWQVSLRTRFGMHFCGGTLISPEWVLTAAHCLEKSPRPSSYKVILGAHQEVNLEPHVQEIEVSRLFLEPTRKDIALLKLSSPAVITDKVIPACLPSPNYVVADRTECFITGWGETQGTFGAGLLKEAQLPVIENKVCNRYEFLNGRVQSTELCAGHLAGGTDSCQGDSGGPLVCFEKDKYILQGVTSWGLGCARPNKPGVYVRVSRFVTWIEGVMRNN
Chain of Coagulation factor X (P00742 41-179 limits assumed): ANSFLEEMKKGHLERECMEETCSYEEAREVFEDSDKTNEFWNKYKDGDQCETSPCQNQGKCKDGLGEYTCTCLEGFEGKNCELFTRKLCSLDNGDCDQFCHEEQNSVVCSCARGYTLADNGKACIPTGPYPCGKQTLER
Chain of Coagulation factor X (P00742 235-488 limits assumed): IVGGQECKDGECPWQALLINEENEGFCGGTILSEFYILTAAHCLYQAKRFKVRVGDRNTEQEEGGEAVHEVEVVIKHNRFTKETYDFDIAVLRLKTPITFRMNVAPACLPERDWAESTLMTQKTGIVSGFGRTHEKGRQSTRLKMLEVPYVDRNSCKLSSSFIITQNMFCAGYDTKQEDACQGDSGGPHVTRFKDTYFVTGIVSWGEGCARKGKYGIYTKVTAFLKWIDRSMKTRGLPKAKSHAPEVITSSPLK

| half-life [1] [h] | Vdss (Canis familiaris) [L/kg] | bioavailability [2] [%] | Activity [3] | Activity [4] | Activity [5] | Activity (Homo sapiens) | Activity [6] | Activity [7] | Activity [8] | clearance [9] [mL/min/kg] | Vd [10] [L/kg] | half-life [11] [h] | Ki (Coagulation factor X) [nM] | Activity (Trypsin (Homo sapiens)) | SMILES |
| --- | --- | --- | --- | --- | --- | --- | --- | --- | --- | --- | --- | --- | --- | --- | --- |
| 0.6 | 5.3 | 84 | – | – | – | – | – | – | – | – | – | – | – | – | CN(C)Cc1nccn1-c1ccc(NC(=O)c2cc(C(F)(F)F)nn2-c2ccc3onc(N)c3c2)c(F)c1 [RAZAXABAN] |
| 1.83 | – | 53 | inactive | inactive | inactive | inactive | inactive | inactive | inactive | 20 | 15 | 12 | – | – | COc1ccc(-n2nc(C(F)(F)F)c3c2C(=O)N(c2ccc(C4(CN(C)C)CC4)cc2)CC3)cc1 |
| – | – | – | inactive | inactive | inactive | inactive | inactive | inactive | inactive | – | – | – | 0.12 | inactive | COc1ccc(-n2nc(C(F)(F)F)c3c2C(=O)N(c2ccc(C4(CNC5CCCC5)CC4)cc2)CC3)cc1 |
| – | – | – | inactive | inactive | inactive | inactive | inactive | inactive | inactive | – | – | – | 169 | inactive | COc1ccc(-n2nc(C(F)(F)F)c3c2C(=O)N(c2ccc(C4(C(=O)N5CCCC5)CC4)cc2)CC3)cc1 |
